In patent US7799778B1, “5-substituted 2-aminopyridine analogs for treating allergic and inflammatory diseases” (Alcon, Inc., priority 2005, dated 2010):

Each molecule was assayed against Syk (h) (Homo sapiens, UniProt P43405) (assay: Syk kinase activity (inhibition) assay, 33P-ATP filter assay). Conditions: 10 μM test agent; Syk (h) 5-10 mU; 40 minutes at room temperature.
Assay type: biochemical
Description: In a final reaction volume of 25 μl, Syk (h) (5-10 mU) is incubated with 50 mM Tris pH 7.5, […], 0.1 mM Na3VO4, 0.1% β-mercaptoethanol, 0.1 mg/mL poly (Glu, Tyr) 4:1, 10 μM test agent, 10 mM Mg Acetate and [γ-^33P-ATP] (specific activity approximately 500 cpm/pmol, concentration as required). The reaction is initiated by the addition of the MgATP mix. After incubation for 40 minutes at room temperature, the reaction is stopped by the addition of 5 μl of a 3% phosphoric acid solution. 10 μl of the reaction is then spotted onto a Filtermat A and washed three times for 5 minutes in 75 mM phosphoric acid and once in methanol prior to drying and scintillation counting. Percent inhibition was calculated using the following formula:
% Control=((sample-mean no enzyme)/(mean plus enzyme−mean no enzyme))×100.

inhibition at 10 µM [%] | SMILES
51 | CN(C)CCN(C)c1ccc(-c2ccc(Cl)cc2)cn1
45 | CN(C)CCN(C)c1ccc(-c2ccc(F)cc2F)cn1
37 | COc1cc(-c2ccc(N3CCN(CCN4CCCC4)CC3)nc2)cc(OC)c1OC
36 | COc1cncc(-c2ccc(N3CCOCC3)nc2)c1
35 | Oc1cccc(-c2ccc(N3CCOCC3)nc2)c1
34 | Fc1ccc(-c2ccc(N3CCOCC3)nc2)c(F)c1
32 | c1cc(N2CCN(CCN3CCCC3)CC2)ncc1-c1ccc2c(c1)OCO2
30 | CN(C)CCN1CCN(c2ccc(-c3ccc(OC(F)(F)F)cc3)cn2)CC1

Continued, molecule first:

SMILES | inhibition at 10 µM [%]
CN(C)CCN1CCN(c2ccc(-c3cc(C(F)(F)F)cc(C(F)(F)F)c3)cn2)CC1 | 56
CN(C)CCN(C)c1ccc(-c2cccc(N(C)C)c2)cn1 | 45
CCOc1cccc(-c2ccc(N(C)CCN(C)C)nc2)c1 | 42
CCCC/C=C/c1ccc(N2CCN(CCN3CCCC3)CC2)nc1 | 38
Fc1ccc(-c2ccc(N3CCN(CCN4CCCC4)CC3)nc2)c(F)c1 | 36
COc1cc(-c2ccc(N3CCN(CCN(C)C)CC3)nc2)cc(OC)c1OC | 36
CN(C)CCN1CCN(c2ccc(/C=C/c3ccccc3)cn2)CC1 | 36
CCCC/C=C/c1ccc(N2CCN(CCN(C)C)CC2)nc1 | 31
